Laboratory results reported in patent US8030300B2, “Ligands for nicotinic acetylcholine receptors, and methods of making and using them” (priority 2003, dated 2011).
Where two headings read alike, the source gives them in different places.

How the values were obtained:
Format in all cases: binding
[1] = molecular target: T1, receptors in rat forebrain (mainly α4β2) (Rattus norvegicus, UniProt P09483+P12390); experiment: biochemical
T1 construct: from tissue; host or cells: rat forebrain homogenate
T1 sequence (P09483 31-630): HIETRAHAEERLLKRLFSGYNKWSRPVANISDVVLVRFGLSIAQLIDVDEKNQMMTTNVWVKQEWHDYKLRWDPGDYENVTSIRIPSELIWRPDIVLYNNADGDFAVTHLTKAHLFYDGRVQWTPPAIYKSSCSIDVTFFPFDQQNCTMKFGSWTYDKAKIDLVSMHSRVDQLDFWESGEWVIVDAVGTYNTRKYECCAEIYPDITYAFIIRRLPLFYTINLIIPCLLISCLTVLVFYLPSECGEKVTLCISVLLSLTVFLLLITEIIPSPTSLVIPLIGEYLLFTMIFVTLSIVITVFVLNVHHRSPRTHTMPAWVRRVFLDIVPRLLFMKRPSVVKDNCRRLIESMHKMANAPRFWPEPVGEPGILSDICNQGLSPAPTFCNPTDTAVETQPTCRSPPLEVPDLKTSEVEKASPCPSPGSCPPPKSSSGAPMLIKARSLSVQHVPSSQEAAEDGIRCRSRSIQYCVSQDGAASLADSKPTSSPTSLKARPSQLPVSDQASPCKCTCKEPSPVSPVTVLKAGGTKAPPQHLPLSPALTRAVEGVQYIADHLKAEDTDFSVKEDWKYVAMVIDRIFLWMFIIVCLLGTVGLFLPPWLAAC
T1 sequence (P12390 25-500): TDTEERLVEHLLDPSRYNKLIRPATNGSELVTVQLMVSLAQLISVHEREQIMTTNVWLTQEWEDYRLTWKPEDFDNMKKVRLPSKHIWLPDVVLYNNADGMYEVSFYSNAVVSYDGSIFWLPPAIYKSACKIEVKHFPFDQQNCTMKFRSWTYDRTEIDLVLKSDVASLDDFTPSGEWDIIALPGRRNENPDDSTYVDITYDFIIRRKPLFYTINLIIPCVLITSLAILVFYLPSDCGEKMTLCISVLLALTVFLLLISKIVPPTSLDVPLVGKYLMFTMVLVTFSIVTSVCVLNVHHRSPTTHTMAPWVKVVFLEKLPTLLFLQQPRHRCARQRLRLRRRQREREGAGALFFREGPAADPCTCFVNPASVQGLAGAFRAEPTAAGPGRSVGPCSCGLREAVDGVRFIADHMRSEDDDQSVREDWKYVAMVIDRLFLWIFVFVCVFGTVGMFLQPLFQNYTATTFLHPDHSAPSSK
From the text: (§1) In order to assess the steric and hydropathic effects of the C-5 substituents of the pyridine on the binding affinity and subtype-selectivity at neuronal nicotinic acetylcholine receptors. […] The binding affinity ratios for a ligand, calculated from its affinities at an α subunit paired with either the β2 osubunit or the β4 subunit, represents a measure of the selectivity of that ligand with regard to the β subunits.
In Vitro Inhibition of ^3H-Epibatidin Binding
The high affinity binding site for ^3H-epibatidin is most certainly binding to the α4β2 subtype of nicotinic receptors. The identity of the low affinity site is still believed to be unknown.
Tissue preparation: Preparations may be performed at 0-4° C. unless otherwise indicated. […] The tissue suspension may then be centrifuged at 27,000×g for 10 min. The supernatant is then discarded and the pellet may then be washed three times by centrifugation at 27,000×g for 10 min in 20 mL fresh buffer, and the final pellet may be resuspended in fresh buffer (400 mL per g of original tissue) and used for binding assays.
Assay: Aliquots of 2.0 mL homogenate may be added to 0.100 mL of test solution and 0.100 mL of ^3H-epibatidin (0.3 nM, final concentration), mixed and incubated for 60 min at room temperature. […] The amount of radioactivity on the filters may be determined by conventional liquid scintillation counting. Specific binding is total binding minus non-specific binding.

α4β2 nAChR subtype = molecular target: T2, α4β2 nAChR subtype (Rattus norvegicus, UniProt P09483+P12390); experiment: biochemical
T2 construct: expressed in transfected cells
T2 sequence (P12390 25-500): as above
T2 sequence (P09483 31-630): as the sequence (P09483 31-630) above
From the text: as §1

α3β4 nAChR subtype = molecular target: T3, α3β4 nAChR subtype (Rattus norvegicus, UniProt P04757+P12392); experiment: biochemical
T3 construct: expressed in transfected cells
T3 sequence (P04757 26-499): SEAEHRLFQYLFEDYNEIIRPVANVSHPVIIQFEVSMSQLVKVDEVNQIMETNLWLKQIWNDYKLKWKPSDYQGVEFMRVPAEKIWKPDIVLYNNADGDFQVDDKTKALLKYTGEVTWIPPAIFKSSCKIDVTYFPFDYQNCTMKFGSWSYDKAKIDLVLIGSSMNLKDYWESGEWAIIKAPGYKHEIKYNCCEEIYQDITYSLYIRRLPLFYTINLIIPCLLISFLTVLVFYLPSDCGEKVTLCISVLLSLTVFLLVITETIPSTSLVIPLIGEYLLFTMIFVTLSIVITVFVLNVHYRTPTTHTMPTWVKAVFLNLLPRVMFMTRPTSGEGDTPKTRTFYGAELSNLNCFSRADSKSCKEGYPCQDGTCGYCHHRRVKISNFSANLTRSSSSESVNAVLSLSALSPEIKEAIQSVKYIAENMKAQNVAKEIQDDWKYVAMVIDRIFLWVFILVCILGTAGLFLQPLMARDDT
T3 sequence (P12392 21-495): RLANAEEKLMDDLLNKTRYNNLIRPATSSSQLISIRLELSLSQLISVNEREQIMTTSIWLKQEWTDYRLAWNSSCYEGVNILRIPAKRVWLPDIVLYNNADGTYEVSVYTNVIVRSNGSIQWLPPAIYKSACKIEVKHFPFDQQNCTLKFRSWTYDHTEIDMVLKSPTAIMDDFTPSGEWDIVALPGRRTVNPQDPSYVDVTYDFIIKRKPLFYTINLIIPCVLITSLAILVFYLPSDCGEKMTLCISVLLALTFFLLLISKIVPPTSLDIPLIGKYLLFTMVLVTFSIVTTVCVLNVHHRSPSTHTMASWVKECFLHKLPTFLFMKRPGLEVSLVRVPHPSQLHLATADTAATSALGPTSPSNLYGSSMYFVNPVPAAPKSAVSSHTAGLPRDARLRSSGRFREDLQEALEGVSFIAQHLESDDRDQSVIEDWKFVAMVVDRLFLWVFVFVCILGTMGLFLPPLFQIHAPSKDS
From the text: as §1

α2β2 nAChR subtype = molecular target: T4, α2β2 nAChR subtype (Rattus norvegicus, UniProt P12389+P12390); experiment: biochemical
T4 construct: expressed in transfected cells
T4 sequence (P12390 25-500): as the sequence (P12390 25-500) above
T4 sequence (P12389 28-511): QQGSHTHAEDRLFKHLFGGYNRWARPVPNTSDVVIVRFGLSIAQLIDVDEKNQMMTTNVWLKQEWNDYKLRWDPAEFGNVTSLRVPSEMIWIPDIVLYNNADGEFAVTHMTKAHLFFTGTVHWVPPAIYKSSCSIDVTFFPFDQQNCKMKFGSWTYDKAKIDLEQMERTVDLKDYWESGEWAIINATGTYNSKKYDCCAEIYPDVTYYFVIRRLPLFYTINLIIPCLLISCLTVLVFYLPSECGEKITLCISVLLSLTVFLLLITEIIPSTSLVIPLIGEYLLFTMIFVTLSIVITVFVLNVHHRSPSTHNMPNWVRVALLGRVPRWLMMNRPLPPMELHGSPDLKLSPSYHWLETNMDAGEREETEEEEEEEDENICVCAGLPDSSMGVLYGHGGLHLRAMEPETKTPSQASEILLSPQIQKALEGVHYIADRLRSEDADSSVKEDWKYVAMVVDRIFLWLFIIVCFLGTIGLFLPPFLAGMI
From the text: as §1

α2β4 nAChR subtype = molecular target: T5, α2β4 nAChR subtype (Rattus norvegicus, UniProt P12389+P12392); experiment: biochemical
T5 construct: expressed in transfected cells
T5 sequence (P12389 28-511): as above
T5 sequence (P12392 21-495): as the sequence (P12392 21-495) above
From the text: as §1

α3β2 nAChR subtype = molecular target: T6, α3β2 nAChR subtype (Rattus norvegicus, UniProt P04757+P12390); experiment: biochemical
T6 construct: expressed in transfected cells
T6 sequence (P12390 25-500): as the sequence (P12390 25-500) above
T6 sequence (P04757 26-499): as the sequence (P04757 26-499) above
From the text: as §1

α4β4 nAChR subtype = molecular target: T7, α4β4 nAChR subtype (Rattus norvegicus, UniProt P09483+P12392); experiment: biochemical
T7 construct: expressed in transfected cells
T7 sequence (P12392 21-495): as the sequence (P12392 21-495) above
T7 sequence (P09483 31-630): as the sequence (P09483 31-630) above
From the text: as §1

[2] = molecular target: T1, receptors in rat forebrain (mainly α4β2); conditions: Table 6, [3H]-EB 0.099 nM, 0.091 nM, n = 1
[3] = Ki α4β2, Table 1, mean of 3 (1, 2: 3 to 6) independent measurements
[4] = Ki α3β4, Table 1, mean of 3 (1, 2: 3 to 6) independent measurements
[5] = Ki α4β2*, Table 5, *Rat forebrain, mainly α4β2
[6] = Ki α4β2, Table 5, rat nAChR subtypes
[7] = Ki α3β4, Table 5, rat nAChR subtypes
[8] = Ki α2β2, Table 5, rat nAChR subtypes
[9] = Ki α2β4, Table 5, rat nAChR subtypes
[10] = Ki α3β2, Table 5, rat nAChR subtypes
[11] = Ki α4β4, Table 5, rat nAChR subtypes

| SMILES | Ki [1] [nM] | Ki (α2β2 nAChR subtype) [nM] | Ki (α2β4 nAChR subtype) [nM] | Ki (α3β2 nAChR subtype) [nM] | Ki (α4β4 nAChR subtype) [nM] | Ki (α4β2 nAChR subtype) [nM] | Ki (α3β4 nAChR subtype) [nM] | Ki [1, 5] [nM] | Ki (α4β2 nAChR subtype; [6]) [nM] | Ki (α3β4 nAChR subtype; [7]) [nM] | Ki (α2β2 nAChR subtype; [8]) [nM] | Ki (α2β4 nAChR subtype; [9]) [nM] | Ki (α3β2 nAChR subtype; [10]) [nM] | Ki (α4β4 nAChR subtype; [11]) [nM] | further results |
| --- | --- | --- | --- | --- | --- | --- | --- | --- | --- | --- | --- | --- | --- | --- | --- |
| CN1CCC[C@H]1COc1cncc(CCCCCCO)c1 [Ligand 19] | 5.39 | 3.33 | 1150 | 13.4 | 968 | – | – | – | – | – | – | – | – | – | Ki (α4β2 nAChR subtype; [3]): 0.75 nM; Ki (α3β4 nAChR subtype; [4]): 20000 nM |
| CN1CCC[C@H]1COc1cncc(C#CCCCCO)c1 [Ligand 16] | 3.56 | 2.87 | 3230 | 12.6 | 1270 | 0.81 | 40200 | – | – | – | – | – | – | – | – |
| CC(N)C#Cc1cncc(OC[C@@H]2CCCN2C)c1 (stereo partly shown) [ZW-99] | 41.4 | 7.52 | 7400 | 47.4 | 6130 | 7.18 | 127000 | – | – | – | – | – | – | – | – |
| OC1CC2CC(c3ccc(Cl)nc3)C1N2 (stereo not drawn) [Ligand 8, 2-exo-(2-Chloro-5-pyridyl)-6-exo-hydroxyl-7-azabicyclo[2.2.1]heptane] | – | – | – | – | – | – | – | 22.9 | 12.6 | 144 | 6.3 | 39.7 | 8.88 | 45.6 | – |
| Clc1cc2c(cn1)C1C3CCC(N3)C1CC2 (stereo not shown) [Ligand 37a] | – | – | – | – | – | – | – | 339 | 67.4 | 2170 | 294 | 693 | 345 | 672 | Ki (α4β2 nAChR subtype; Table 3, mean ± SEM of 3 (nicotine, 1: 3 to 6) independent measurements, read-out: Ki α4β2): 73 nM; Ki (α3β4 nAChR subtype; Table 3, mean ± SEM of 3 (nicotine, 1: 3 to 6) independent measurements, read-out: Ki α3β4): 2280 nM; Ki (α2β2 nAChR subtype; Table 3, mean ± SEM of 3 (nicotine, 1: 3 to 6) independent measurements, read-out: Ki α2β2): 290 nM; Ki (α2β4 nAChR subtype; Table 3, mean ± SEM of 3 (nicotine, 1: 3 to 6) independent measurements, read-out: Ki α2β4): 717 nM; Ki (α3β2 nAChR subtype; Table 3, mean ± SEM of 3 (nicotine, 1: 3 to 6) independent measurements, read-out: Ki α3β2): 354 nM; Ki (α4β4 nAChR subtype; Table 3, mean ± SEM of 3 (nicotine, 1: 3 to 6) independent measurements, read-out: Ki α4β4): 637 nM |
| CN1CCC[C@H]1COc1cncc(C#CC(C)(C)O)c1 [Ligand 15, 5-(3-Hydroxy-3-methyl-1-butynyl)-3-(1-methyl-2(S)pyrrolidinylmethoxy)pyridine] | – | – | – | – | – | – | – | – | – | – | – | – | – | – | Ki ([1]; Table 5, *Rat forebrain, mainly α4β2, read-out: Ki α4β2*): 8.39 nM; Ki [2]: 8.39 nM; Ki (α4β2 nAChR subtype; Table 5, rat nAChR subtypes, read-out: Ki α4β2): 1.34 nM; Ki (α4β2 nAChR subtype; Table 6, [3H]-EB 0.099 nM, 0.091 nM, ligand 0.00197-100 μM, n = 1, read-out: Ki α4β2): 1.34 nM; Ki (α3β4 nAChR subtype; Table 5, rat nAChR subtypes, read-out: Ki α3β4): 32600 nM; Ki (α3β4 nAChR subtype; Table 6, [3H]-EB 0.099 nM, 0.091 nM, ligand 0.00197-100 μM, n = 1, read-out: Ki α3β4): 32600 nM; Ki (α2β2 nAChR subtype; Table 5, rat nAChR subtypes, read-out: Ki α2β2): 1.93 nM; Ki (α2β2 nAChR subtype; Table 6, [3H]-EB 0.099 nM, 0.091 nM, ligand 0.00197-100 μM, n = 1, read-out: Ki α2β2): 1.93 nM; Ki (α2β4 nAChR subtype; Table 5, rat nAChR subtypes, read-out: Ki α2β4): 5890 nM; Ki (α2β4 nAChR subtype; Table 6, [3H]-EB 0.099 nM, 0.091 nM, ligand 0.00197-100 μM, n = 1, read-out: Ki α2β4): 5890 nM; Ki (α3β2 nAChR subtype; Table 5, rat nAChR subtypes, read-out: Ki α3β2): 19.7 nM; Ki (α3β2 nAChR subtype; Table 6, [3H]-EB 0.099 nM, 0.091 nM, ligand 0.00197-100 μM, n = 1, read-out: Ki α3β2): 19.7 nM; Ki (α4β4 nAChR subtype; Table 5, rat nAChR subtypes, read-out: Ki α4β4): 5060 nM; Ki (α4β4 nAChR subtype; Table 6, [3H]-EB 0.099 nM, 0.091 nM, ligand 0.00197-100 μM, n = 1, read-out: Ki α4β4): 5060 nM |
| FC1CC2NC1CC2c1ccc(Cl)nc1 (stereo not drawn) [Ligand 10, 2-exo-(2-Chloro-5-pyridyl)-5-exo-fluoro-7-azabicyclo[2.2.1]heptane] | – | – | – | – | – | – | – | 2.11 | 1.73 | 10.4 | 0.864 | 5.59 | 0.646 | 1.23 | – |
| C#Cc1cncc(OC[C@@H]2CCCN2C)c1 [Ligand 18] | – | – | – | – | – | – | – | – | – | – | – | – | – | – | Ki ([1]; Ki Rat forebrain, Table 1, mean of 3 (1, 2: 3 to 6) independent measurements): 3.65 nM; Ki (α4β2 nAChR subtype; [3]): 1.02 nM; Ki (α3β4 nAChR subtype; [4]): 3080 nM; Ki (α2β2 nAChR subtype; Ki α2β2, Table 1, mean of 3 (1, 2: 3 to 6) independent measurements): 0.75 nM; Ki (α2β4 nAChR subtype; Ki α2β4, Table 1, mean of 3 (1, 2: 3 to 6) independent measurements): 434 nM; Ki (α3β2 nAChR subtype; Ki α3β2, Table 1, mean of 3 (1, 2: 3 to 6) independent measurements): 10.7 nM; Ki (α4β4 nAChR subtype; Ki α4β4, Table 1, mean of 3 (1, 2: 3 to 6) independent measurements): 473 nM |
| O=c1cccc2n1C[C@H]1C[C@@H]2CN(CCCN2C[C@@H]3C[C@H](C2)c2cccc(=O)n2C3)C1 [ZW-18] | 936 | 318 | 3480 | > 1000 | 746 | 468 | > 10000 | – | – | – | – | – | – | – | – |
